We go through one compound from EPA's ToxValDB 9.5 (doi:10.2903/j.efsa.2013.3243).

Values after ≈ are worked out from the molar mass of the structure shown.

For one data set, the system named is Anas platyrhynchos. As to conditions: reproductive.
The next data set has as its system Apis mellifera. As to conditions: acute, duration: 48 hours, mortality.
The subject of a further data set is Bibionidae. As to conditions: chronic/long-term; duration: 21 days; other.
The test system of the next data set is Canidae. The note with it: chronic; duration: 52 weeks; oral; Dog Other; organ weight.
In another data set the test system is Colinus virginianus. As to conditions: acute, oral, mortality.
In a further data set the test system is Cyprinodon variegatus. As to conditions: acute; duration: 96 hours; mortality.
The test system of the next data set is Daphnia magna. As to conditions: chronic/long-term; duration: 21 days; mobility.
The next data set concerns Pimephales promelas. The note with it: chronic/long-term; duration: 33 days; other.
The test system of the next data set is Tagia sp. The note with it: acute; duration: 14 days; mortality.
The next data set concerns Aphidius rhopalosiphi. The experiment in a line: LR50; higher = less toxic. The note with it: acute; duration: 48 hours; mortality.
The next data set concerns Typhlodromus pyri. The experiment in a line: LR50; higher = less toxic. As to conditions: acute; duration: 7 days; mortality.

In the case of `CCOC(=O)OC1=C(c2cc(C)ccc2C)C(=O)NC12CCC(OC)CC2` (stereo unspecified) [Spirotetramat], the NOAEL was found to be 4 mg/kg-day with Anas platyrhynchos; 5 mg/kg-day in the data set with Canidae; 100 mg/kg-day with Rattus norvegicus (acute, clinical signs); 70 mg/kg-day with Rattus norvegicus (reproduction developmental, body weight). Moreover, the LD50 is over 100 µg/piece with Apis mellifera (dermal); over 107 µg/piece in the data set with Apis mellifera (oral, unspecified); over 2000 mg/kg-day in the data set on Colinus virginianus; over 2000 mg/kg-day in the data set with Rattus norvegicus (acute, oral, mortality). The NOEC in the data set with Bibionidae is 0.1 mg/L; with Daphnia magna, 2 mg/L; in the data set with Pimephales promelas, 0.534 mg/L. Further, the LC50 in the data set with Colinus virginianus (diet) is over 475 mg/kg-day; with Cyprinodon variegatus it was 1.96 µg/mL (≈ 5.25 µM); with Tagia sp., over 1000 mg/kg. Also, the results for the LR50 in the data set on Aphidius rhopalosiphi and with Typhlodromus pyri were 115 g/ha and 0.333 g/ha, respectively.

The term NOAEL denotes the highest dose or exposure tested at which no adverse effect was seen.
